Results as given in patent publication US8017786B2, “Substituted β-phenyl-α-hydroxy-propanoic acid, synthesis method and use thereof” (Northwest University, priority 2006, dated 2011).

Tested on: caspase-3
Assay: Immunohistochemistry protein expression in I/R myocardial tissue: caspase-3
Type: in vivo, rat
Conditions: for Caspase-3 protein expression, OD value: 5 days, ischemia 30 min, reperfusion 2 h
Protocol: 52 SD rats having a body weight of 220±20 g were randomly divided into model control group, salviannic acid injection group (in 1 mL/kg), and group of bornyl β-(3,4-dihydroxylphenyl)-α-hydroxylpropionate ester at a small, middle and large dose (ip 5, 15, 35 mg/kg). The rats of the normal group and the model control group were ip administered with equal-volume of physiologic saline. The rats of all groups were administered for consecutive 5 days. When the rats were administered for the last time, they were simultaneously anesthetized with 1.5% pentobarbital sodium (ip 45 mg/kg), then a catheter was inserted into the right carotid artery, and connected via a transducer to an eight-channeled physiological recorder. Tracheal cannula was performed, and the ventilation rate was maintained at 60 times/min. The chest was opened, a 6/0 suture was used to form a loop at a site 1˜2 mm from the root of the anterior descending coronary artery, and a plastic pipe was introduced through the loop, then the loop was tightened up. The change of electrocardiogram was observed. An increase or decrease of ST indicated the success of ligation. The color of the myocardial tissue below the ligation suture became darker. 30 minutes later, the plastic pipe was pulled out to allow coronary artery blood flowing again and cause hyperemia of local tissue during reperfusion. For the groups subjected to ischemia for 30 min and reperfusion for 30 min, the myocardial infarction areas were recorded before the test, after ischemia for 1 min and 30 min, and after reperfusion for 30 min; for the groups subjected to ischemia for 30 min and reperfusion for 2 h, cardiac tissue samples were taken and fixed using 10% formalin, embedded with paraffin, serially sliced into sections with a thickness of 4 μm, and separately subjected to immunohistochemistry tests; the rats of the sham operation group were subjected only to the introduction of suture but their coronary arteries were not ligated.
Standard immunohistochemistry ABC and SP methods were employed for staining. Bax: anti-rabbit polyclonal antibody (Santa CruzBio. Inc.) at a dilution of 1:200; […]: anti-rabbit polyclonal antibody (TBD Tianjin Biotechnological Center). At a dilution of […]; caspase-3: anti-rabbit polyclonal antibody (Normarkers Fromont, Calif.), at a dilution of 1:200; MMP-2: anti-murine monoclonal antibody (NormarkersFromont, Calif.) at a dilution of 1:200; PPARγ: anti-caprine polyclonal antibody (Santa Cruz Bio. Inc.), at a dilution of 1:500. The specific procedures were performed in accordance with the instructions of the ABC and SP kits, DAB was used for color development, and neutral resin was used for mounting. PBS was used instead of the first antibody as a negative control. Cells with positive expression of the test polypeptides were of brown-yellow color, with MMP-2 protein being present in acytoplasm, Bcl-2 expressed in nuclear membrane and cytoplasm, Bax mainly in cytoplasm and partially in nucleus, and caspase-3 mainly in nucleus and partially in cytoplasm. CMIAS image analysis system was used for random selection of fields of slices and automatic selection of sites for analysis, and statistic analysis was performed by using mean optical density values or integral optical density values of the obtained myocardial tissue slices.

CC1(C)C2CCC1(C)C(OC(=O)C(O)Cc1ccc(O)c(O)c1)C2 (stereo not drawn) [bornyl salvianate ester, bornyl β-(3,4-dihydroxylphenyl)-α-hydroxylpropionate ester]
Caspase-3 protein expression, OD value (5 mg/kg ip): 0.35 ± 0.14
Caspase-3 protein expression, OD value (15 mg/kg ip): 0.32 ± 0.08
Caspase-3 protein expression, OD value (35 mg/kg ip): 0.20 ± 0.07
expression of caspase-3 protein (in words) (myocardial cells I/R): reduce the expression of Bax and caspase-3 proteins
